Earlier results in US6500409B1, “Synergistic antiplaque/antigingivitis oral composition” (Colgate Palmolive Company, priority 2000, dated 2002).

Columns and labels:
[1] = tested on: plaque adherence to teeth; details: in vitro
[2] = tested on: S. mutans; details: in vitro

C=CCc1ccc(O)c(-c2ccc(O)c(CC=C)c2)c1 [honokiol]
Inhibition of plaque adherence to teeth, in words [1]: not found to be inhibitory | Bactericidal activity in MIC test, in words [2]: bactericidal

C=CCc1ccc(O)c(-c2cc(CC=C)ccc2O)c1 [magnolol]
Inhibition of plaque adherence to teeth, in words [1]: not found to be inhibitory | Bactericidal activity in MIC test, in words [2]: bactericidal
